Results from patent US9107415B2, “2-(substituted-phenyl)-cyclopentane-1,3-dione compounds, and derivatives thereof” (Syngenta Limited, priority 2011, dated 2015).

Columns and labels:
Format in all cases: in vivo
[1] = tested on: grassy monocotyledonous weeds such as Lolium, Alopecurus, Echinochloa and/or Avena; test: Post-emergence herbicidal activity on grassy monocotyledonous weeds, summary statements (Biological Examples 1 to 4)
[2] = tested on: Echinochloa crus-galli (ECHCG); test: Biological Example 1 glasshouse screen, post-emergence herbicidal activity; settings: 312 h, read-out: ECHCG percentage phytotoxicity
Outline: (§1)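 Pot-grown seedlings sprayed 1 day after sowing (pre-emergence) or after 8 days' growth (post-emergence) with active ingredient in acetone/water (50:50) plus 0.5% Tween 20; glasshouse at 24/16°C day/night, 14 h light, 65% humidity. Visual % phytotoxicity (0 = no damage, 100 = total damage) scored 13 days after application.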

[3] = tested on: Alopecurus myosuroides (ALOMY); test: as above; settings: 312 h, read-out: ALOMY percentage phytotoxicity
Outline: as §1

[4] = tested on: Lolium multiflorum (LOLMU); test: Biological Example 4A (previously-formulated compounds) post-emergence herbicidal activity on grassy weeds; settings: 14 DAA, EC formulation, mean of two
Experimental: (§2) Seeds of a variety of test species are sown in standard soil in pots. After cultivation for 14 days under controlled conditions in a glasshouse (at 22/16°C., day/night; 16 hours light; 65% humidity), the plants are sprayed with the test compounds. The test plants are then grown on under controlled conditions in the glasshouse (at 22/16°C., day/night; 16 hours light; 65% humidity) and are watered twice daily. After 14 days the test is evaluated visually (100%=total damage to plant; 0%=no damage to plant). Post-emergence herbicidal activity (phytotoxicity) data, on certain grassy monocotyledonous weeds and cereal crops in a glasshouse, are measured 14 days after application of the herbicide (14 DAA), inter alia for post-emergence application rates of 30 or 60 g/ha of the test herbicide, with or without 50 g/ha of cloquintocet-mexyl safener applied at substantially the same time as the herbicide.
(§3) Herbicidal activity (phytotoxicity) is evaluated visually, and an assessed percentage phytotoxicity score is given for each herbicidal application on each plant species (with 100%=total damage to plant; 0%=no damage to plant). Two repetitions are made for each experiment and the mean herbicidal activity (phytotoxicity) data is reported.
(§4) Biological Example 4A is used on previously-formulated compounds, typically compounds previously formulated as an emulsifiable concentrates (EC), wherein the EC contains the herbicidal compound under test dissolved in one or more organic solvents, and wherein the EC also contains one or more surfactants or emulsifiers. In the test method, the EC containing the herbicide (plus a cloquintocet-mexyl formulation if this is also present) is generally diluted with water to form an emulsion, and the resulting emulsion is sprayed onto the emerged weed and/or crop plants.
(§5) For the testing of Compounds A-5 and A-6, each of these compounds was separately formulated into an emulsifiable concentrate containing 10% w/w of the herbicidal compound, 9% w/w of castor oil ethoxylate (an emulsifier, present as Emulsogen™EL360), 6% w/w of calcium dodecylbenzenesulfonate (linear) (an emulsifier, present as Nansa™EVM 63B), 3% w/w of tristyrylphenol ethoxylate having 16 moles of ethoxylation per mole of molecule (an emulsifier, present as Soprophor™BSU), 10% w/w of benzyl benzoate (as solvent), 20% w/w of 1-methyl-2-pyrrolidone (as solvent), and the remainder of N-octyl-2-pyrrolidone (as solvent). The solvents and surfactants/emulsifiers were first mixed together, to form a “blank” EC, and the herbicidal compound was then added to and dissolved in this solvent and emulsifier mixture to prepare the emulsifiable concentrate, to give an EC formulation/composition containing approximately 100 g/L of active herbicidal compound.
(§6) In the tests of Compounds A-5 and A-6, the cloquintocet-mexyl was pre-formulated as a formulation/composition containing 10% w/w cloquintocet-mexyl, 6% w/w Emulsogen™ EL360 (as emulsifier), 4% w/w Nansa™EVM 63B (as wetting agent), 1% w/w Drapex™39 (epoxidised soybean oil), 20% w/w 1-methyl-2-pyrrolidone (as solvent), and the remainder as Solvesso™200ND (a mixture of heavy aromatic hydrocarbons, as a solvent).
(§7) Test plants: Avena fatua (AVEFA), Lolium multiflorum (LOLMU), Setaria viridis (SETVI), Poa annua (POAAN), Alopecurus myosuroides (ALOMY). All five of these are grassy monocotyledonous weeds.

[5] = tested on: Setaria viridis (SETVI); test: as above; settings: 14 DAA, EC formulation, mean of two
Experimental: as §2, §3, §4, §5, §6, §7

[6] = tested on: Alopecurus myosuroides (ALOMY); test: as above; settings: 14 DAA, EC formulation, mean of two
Experimental: as §2, §3, §4, §5, §6, §7

[7] = tested on: Poa annua (POAAN); test: as above; settings: 14 DAA, EC formulation, mean of two
Experimental: as §2, §3, §4, §5, §6, §7

[8] = tested on: Avena fatua (AVEFA); test: as above; settings: 14 DAA, EC formulation, mean of two
Experimental: as §2, §3, §4, §5, §6, §7

[9] = tested on: Spring Barley “Harrington”; test: Biological Example 4A post-emergence phytotoxicity on cereal crops; settings: 14 DAA, EC formulation, mean of two
Experimental: as §2, §3, §4, §5, §6

[10] = tested on: Winter Wheat “Hereward”; test: as above; settings: 14 DAA, EC formulation, mean of two
Experimental: as §2, §3, §4, §5, §6

[11] = tested on: Winter Barley “Suzuka”; test: as above; settings: 14 DAA, EC formulation, mean of two
Experimental: as §2, §3, §4, §5, §6

[12] = tested on: Spring Wheat “Teal”; test: as above; settings: 14 DAA, EC formulation, mean of two
Experimental: as §2, §3, §4, §5, §6

[13] = tested on: Avena fatua (AVEFA); test: Biological Example 1 glasshouse screen, post-emergence herbicidal activity; settings: 312 h, read-out: AVEFA percentage phytotoxicity
Outline: (§8)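 Pots in a glasshouse (24/16°C day/night, 14 h light, 65% humidity) were sprayed one day after sowing (pre-emergence) or after 8 days (post-emergence), using acetone/water (50:50) with 0.5% Tween 20. Phytotoxicity was scored visually as % damage (0-100) 13 days after application.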

[14] = tested on: Lolium perenne (LOLPE); test: as above; settings: 312 h, read-out: LOLPE percentage phytotoxicity
Outline: as §8

[15] = 30 g/ha, cloquintocet-mexyl 0 g/ha
[16] = 30 g/ha, cloquintocet-mexyl 50 g/ha
[17] = 60 g/ha, cloquintocet-mexyl 0 g/ha
[18] = 60 g/ha, cloquintocet-mexyl 50 g/ha

CC#Cc1cc(C)c(C2C(=O)C[C@@H](Cc3ccccn3)C2=O)c(C)c1 (some centres unmarked) [Compound A-6]
post-emergence herbicidal activity against grassy monocotyledonous weeds, in words [1]: more potent herbicidal activity | pest or weed control at 250 g/ha [2]: 100% | pest or weed control at 250 g/ha [3]: 100% | LOLMU % phytotoxicity [4, 15]: 100% | LOLMU % phytotoxicity [4, 16]: 100% | LOLMU % phytotoxicity [4, 17]: 100% | LOLMU % phytotoxicity [4, 18]: 100% | SETVI % phytotoxicity [5, 15]: 100% | SETVI % phytotoxicity [5, 16]: 100% | SETVI % phytotoxicity [5, 17]: 100% | SETVI % phytotoxicity [5, 18]: 100% | ALOMY % phytotoxicity [6, 15]: 100% | ALOMY % phytotoxicity [6, 16]: 100% | ALOMY % phytotoxicity [6, 17]: 100% | ALOMY % phytotoxicity [6, 18]: 100% | POAAN % phytotoxicity [7, 15]: 65% | POAAN % phytotoxicity [7, 16]: 48% | POAAN % phytotoxicity [7, 17]: 94% | POAAN % phytotoxicity [7, 18]: 85% | AVEFA % phytotoxicity [8, 15]: 98% | AVEFA % phytotoxicity [8, 16]: 90% | AVEFA % phytotoxicity [8, 17]: 100% | AVEFA % phytotoxicity [8, 18]: 99% | Spring Barley “Harrington” phytotoxicity (%) [9, 15]: 95% | Spring Barley “Harrington” phytotoxicity (%) [9, 16]: 13% | Spring Barley “Harrington” phytotoxicity (%) [9, 17]: 98% | Spring Barley “Harrington” phytotoxicity (%) [9, 18]: 48% | Winter Wheat “Hereward” phytotoxicity (%) [10, 15]: 65% | Winter Wheat “Hereward” phytotoxicity (%) [10, 16]: 15% | Winter Wheat “Hereward” phytotoxicity (%) [10, 17]: 80% | Winter Wheat “Hereward” phytotoxicity (%) [10, 18]: 20% | Winter Barley “Suzuka” phytotoxicity (%) [11, 15]: 93% | Winter Barley “Suzuka” phytotoxicity (%) [11, 16]: 10% | Winter Barley “Suzuka” phytotoxicity (%) [11, 17]: 98% | Winter Barley “Suzuka” phytotoxicity (%) [11, 18]: 25% | Spring Wheat “Teal” phytotoxicity (%) [12, 15]: 78% | Spring Wheat “Teal” phytotoxicity (%) [12, 16]: 25% | Spring Wheat “Teal” phytotoxicity (%) [12, 17]: 94% | Spring Wheat “Teal” phytotoxicity (%) [12, 18]: 45% | pest or weed control at 250 g/ha [13]: 100% | pest or weed control at 250 g/ha [14]: 100%
